Where “and” joins values, the source holds several entries; their conditions need not be identical. Equal entries are not always repeated. Toxic doses and inconclusive results are not listed. How the source made its calls: active means survival T/C of 150% or more; inactive means T/C below 125% in these data.
Tested on: BDF1 mice, B16 melanoma ip, median survival T/C
Assay: NCI In Vivo Anticancer Drug Screen. Data for tumor model B16 Melanoma (intraperitoneal) in B6D2F1 (BDF1) mice
Conditions: endpoint: median survival time, higher = longer survival
In short: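 Vehicle-treated animals serve as the reference (C); treated animals (T) are scored for survival or tumor size after tumor transplantation.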

[1] = dose: 6.25 mg/kg/injection, schedule: Q01DX009 (ip), vehicle: saline
[2] = dose: 12.5 mg/kg/injection, schedule: Q01DX009 (ip), vehicle: saline
[3] = dose: 25.0 mg/kg/injection, schedule: Q01DX009 (ip), vehicle: saline
[4] = dose: 50.0 mg/kg/injection, schedule: Q01DX009 (ip), vehicle: saline with Tween-80
[5] = dose: 100.0 mg/kg/injection, schedule: Q01DX009 (ip), vehicle: saline
[6] = dose: 12.5 mg/kg/injection, schedule: Q01DX009 (ip), vehicle: saline with Tween-80
[7] = dose: 25.0 mg/kg/injection, schedule: Q01DX009 (ip), vehicle: saline with Tween-80
[8] = dose: 100.0 mg/kg/injection, schedule: Q01DX009 (ip), vehicle: saline with Tween-80
[9] = dose: 200.0 mg/kg/injection, schedule: Q01DX009 (ip), vehicle: saline with Tween-80
[10] = dose: 50.0 mg/kg/injection, schedule: Q01DX009 (ip), vehicle: saline

Measured: T/C

CC(C)C(=O)[O][Sn]([CH3])([CH3])[CH3]
inactive: dose: 0.19 mg/kg/injection, schedule: Q01DX009 (ip), vehicle: saline 107 % of control | dose: 0.38 mg/kg/injection, schedule: Q01DX009 (ip), vehicle: saline 105 % of control | dose: 0.75 mg/kg/injection, schedule: Q01DX009 (ip), vehicle: saline 100 % of control

COc1cc2cc3c4cc(OC)c(OC)cc4cc[n+]3c(C)c2cc1OC (tested in a mixture with another compound)
inactive: [1] 106 % of control | dose: 6.25 mg/kg/injection, schedule: Q04DX003 (ip), vehicle: saline with Tween-80 88 % of control | dose: 6.25 mg/kg/injection, schedule: Q04DX003 (ip), vehicle: saline 107 % of control | dose: 8.0 mg/kg/injection, schedule: Q01DX009 (ip), vehicle: Klucel (hydroxypropylcellulose) (HPC) 90 % of control and 91 % of control | dose: 8.0 mg/kg/injection, schedule: Q01DX009 (ip), vehicle: clinical formulation 100 % of control and 109 % of control | dose: 8.0 mg/kg/injection, schedule: Q01DX009 (ip), vehicle: other 99 % of control and 107 % of control | dose: 8.0 mg/kg/injection, schedule: Q01DX009 (ip), vehicle: water 87 % of control | [2] 93 % of control | dose: 12.5 mg/kg/injection, schedule: Q01DX009 (ip), vehicle: water 95 % of control | dose: 12.5 mg/kg/injection, schedule: Q04DX003 (ip), vehicle: saline with Tween-80 100 % of control | dose: 12.5 mg/kg/injection, schedule: Q04DX003 (ip), vehicle: saline 105 % of control | dose: 16.0 mg/kg/injection, schedule: Q01DX009 (ip), vehicle: Klucel (hydroxypropylcellulose) (HPC) 91 % of control and 92 % of control and 96 % of control | dose: 16.0 mg/kg/injection, schedule: Q01DX009 (ip), vehicle: clinical formulation 94 % of control and 106 % of control | dose: 16.0 mg/kg/injection, schedule: Q01DX009 (ip), vehicle: other 97 % of control and 111 % of control and 123 % of control | dose: 16.0 mg/kg/injection, schedule: Q01DX009 (ip), vehicle: water 96 % of control and 106 % of control | [3] 87 % of control | dose: 25.0 mg/kg/injection, schedule: Q01DX009 (ip), vehicle: water 109 % of control | dose: 25.0 mg/kg/injection, schedule: Q04DX003 (ip), vehicle: saline with Tween-80 102 % of control | dose: 25.0 mg/kg/injection, schedule: Q04DX003 (ip), vehicle: saline 102 % of control | dose: 32.0 mg/kg/injection, schedule: Q01DX009 (ip), vehicle: Klucel (hydroxypropylcellulose) (HPC) 90 % of control and 93 % of control and 95 % of control | dose: 32.0 mg/kg/injection, schedule: Q01DX009 (ip), vehicle: clinical formulation 96 % of control and 105 % of control | dose: 32.0 mg/kg/injection, schedule: Q01DX009 (ip), vehicle: other 103 % of control and 105 % of control (2×) | dose: 32.0 mg/kg/injection, schedule: Q01DX009 (ip), vehicle: water 94 % of control and 111 % of control | dose: 33.0 mg/kg/injection, schedule: Q01DX009 (ip), vehicle: saline with Tween-80 105 % of control | [4] 110 % of control | dose: 50.0 mg/kg/injection, schedule: Q01DX009 (ip), vehicle: water 93 % of control | dose: 50.0 mg/kg/injection, schedule: Q04DX003 (ip), vehicle: saline with Tween-80 97 % of control | dose: 50.0 mg/kg/injection, schedule: Q04DX003 (ip), vehicle: saline 100 % of control | dose: 64.0 mg/kg/injection, schedule: Q01DX009 (ip), vehicle: Klucel (hydroxypropylcellulose) (HPC) 89 % of control and 91 % of control and 94 % of control | dose: 64.0 mg/kg/injection, schedule: Q01DX009 (ip), vehicle: clinical formulation 104 % of control | dose: 64.0 mg/kg/injection, schedule: Q01DX009 (ip), vehicle: other 100 % of control and 104 % of control | dose: 75.0 mg/kg/injection, schedule: Q01DX009 (ip), vehicle: saline with Tween-80 101 % of control | [5] 106 % of control | dose: 100.0 mg/kg/injection, schedule: Q01DX009 (ip), vehicle: water 91 % of control | dose: 100.0 mg/kg/injection, schedule: Q04DX003 (ip), vehicle: saline 94 % of control | dose: 128.0 mg/kg/injection, schedule: Q01DX009 (ip), vehicle: Klucel (hydroxypropylcellulose) (HPC) 91 % of control and 93 % of control | dose: 200.0 mg/kg/injection, schedule: Q04DX003 (ip), vehicle: saline with Tween-80 88 % of control | dose: 200.0 mg/kg/injection, schedule: Q04DX003 (ip), vehicle: saline 100 % of control

CC(=O)Nc1cccc2c1CCCC2
inactive: dose: 100.0 mg/kg/injection, schedule: Q04DX003 (ip), vehicle: gum acacia 113 % of control | dose: 200.0 mg/kg/injection, schedule: Q04DX003 (ip), vehicle: gum acacia 97 % of control | dose: 400.0 mg/kg/injection, schedule: Q04DX003 (ip), vehicle: gum acacia 95 % of control

Cc1cccc(C)c1N.[C-]#[O+].[C-]#[O+].[C-]#[O+].[Cr]
inactive: dose: 6.25 mg/kg/injection, schedule: Q01DX009 (ip), vehicle: Klucel (hydroxypropylcellulose) (HPC) 103 % of control | dose: 12.5 mg/kg/injection, schedule: Q01DX009 (ip), vehicle: Klucel (hydroxypropylcellulose) (HPC) 100 % of control | dose: 25.0 mg/kg/injection, schedule: Q01DX009 (ip), vehicle: Klucel (hydroxypropylcellulose) (HPC) 100 % of control and 112 % of control

Cc1ccc(NS(=O)(=O)c2ccccc2)c(C)c1
inactive: dose: 75.0 mg/kg/injection, schedule: Q01DX009 (ip), vehicle: Klucel (hydroxypropylcellulose) (HPC) 86 % of control | dose: 150.0 mg/kg/injection, schedule: Q01DX009 (ip), vehicle: Klucel (hydroxypropylcellulose) (HPC) 87 % of control | dose: 300.0 mg/kg/injection, schedule: Q01DX009 (ip), vehicle: Klucel (hydroxypropylcellulose) (HPC) 92 % of control

NC(=S)N/N=C/c1ccc(C(F)(F)F)cn1
inactive: dose: 8.8 mg/kg/injection, schedule: Q01DX009 (ip), vehicle: Klucel (hydroxypropylcellulose) (HPC) 106 % of control | dose: 13.3 mg/kg/injection, schedule: Q01DX009 (ip), vehicle: Klucel (hydroxypropylcellulose) (HPC) 108 % of control | dose: 20.0 mg/kg/injection, schedule: Q01DX009 (ip), vehicle: Klucel (hydroxypropylcellulose) (HPC) 109 % of control

CN=C(N)N/N=C(\C)c1ccc2oc3ccc(/C(C)=N/NC(N)=NC)cc3c2c1
inactive: [6] 106 % of control | [7] 113 % of control | [4] 102 % of control

O=[N+]([O-])c1ccc2ccccc2c1-c1c([N+](=O)[O-])ccc2ccccc12
inactive: [4] 97 % of control | [8] 101 % of control | [9] 97 % of control

O=C(O)CCCC1CCCCC1.[Cu+2]
inactive: dose: 6.25 mg/kg/injection, schedule: Q01DX009 (ip), vehicle: saline with Tween-80 100 % of control | [6] 97 % of control

C=C(NC(=O)C(=C)NC(=O)c1csc(C2=NC3c4csc(n4)C4NC(=O)c5csc(n5)C(C(C)(O)C(C)O)NC(=O)C5CSC(=N5)/C(=C/C)NC(=O)C(C(C)O)NC(=O)c5csc(n5)C3(CC2)NC(=O)C(C)NC(=O)C(=C)NC(=O)C(=C)NC(=O)C(C(C)C)NC2C=Cc3c(C(C)O)cc(nc3C2O)C(=O)OC4C)n1)C(N)=O (configuration not stated)
inactive: dose: 3.12 mg/kg/injection, schedule: Q01DX009 (ip), vehicle: saline 114 % of control | [1] 104 % of control and 117 % of control | [2] 109 % of control and 114 % of control | [3] 110 % of control and 120 % of control | [10] 119 % of control and 120 % of control | [5] 123 % of control

OCCNCCNc1ccnc2cc(Cl)ccc12
inactive: [2] 89 % of control | [3] 104 % of control | [10] 99 % of control | [5] 110 % of control

CCN(CC)CCOCCO
inactive: dose: 25.0 mg/kg/injection, schedule: Q01DX009 (ip), vehicle: suspension in saline 107 % of control | dose: 50.0 mg/kg/injection, schedule: Q01DX009 (ip), vehicle: suspension in saline 95 % of control | dose: 100.0 mg/kg/injection, schedule: Q01DX009 (ip), vehicle: suspension in saline 105 % of control | dose: 200.0 mg/kg/injection, schedule: Q01DX009 (ip), vehicle: suspension in saline 96 % of control

O=C(Nc1cc(C(F)(F)F)ccc1Cl)c1ccc(Cl)cc1Cl
inactive: [8] 88 % of control | [9] 88 % of control

Nc1nc(=S)c2n[nH]nc2[nH]1
inactive: [6] 96 % of control | [7] 108 % of control | [4] 113 % of control | [8] 88 % of control

CCN(C(=O)COc1ccc(Cl)cc1)c1ccccc1C
inactive: dose: 100.0 mg/kg/injection, schedule: Q01DX009 (ip), vehicle: Klucel (hydroxypropylcellulose) (HPC) 96 % of control | dose: 200.0 mg/kg/injection, schedule: Q01DX009 (ip), vehicle: Klucel (hydroxypropylcellulose) (HPC) 106 % of control | dose: 400.0 mg/kg/injection, schedule: Q01DX009 (ip), vehicle: Klucel (hydroxypropylcellulose) (HPC) 96 % of control

CN(C)C(=S)Nc1ccccc1
inactive: [4] 95 % of control | [8] 95 % of control | [9] 90 % of control

Source: PubChem BioAssay AID192 (DTP/NCI, 2004)
